Data published in PubChem BioAssay AID332 (DTP/NCI, 2004).
Where “and” joins values, the source holds several entries; their conditions need not be identical. Identical values can stand only once. Records with an inconclusive call do not appear. Numbered stars: 1 amine (or outer) side, 2 acyl side, 3 side chain; on linkers, the order of the positions; unused ones are H or OH. Bridge positions count the residues as written; N and C are the ends. Square brackets hold non-standard residues; d marks the D form. Peptide text beside a SMILES is read from it. I, II: the chains in the order shown. Actinocin(9to1) = Cc1c2oc3c(C)ccc(C(=O)[*:1])c3nc-2c(C(=O)[*:2])c(N)c1=O; aThr = C[C@H](O)[C@H](N)C(=O)O; NMeV = CN[C@H](C(=O)O)C(C)C; Sar = CNCC(=O)O

System: mice, ADJ-PC-20 plasma cell tumor sc, T/C %
Experiment: NCI In Vivo Anticancer Drug Screen. Data for tumor model ADJ-PC-20 Plasma Cell (subcutaneous) in unknown mice
Settings: endpoint: mean tumor weight, higher = larger tumour
Experimental: The antitumor activity of compounds was measured in mice bearing transplantable tumors. Survival or tumor size were measured and the results are expressed as the measurement made in the treated group (T) divided by the measurement made in the vehicle treated control group (C). The tumor model used in this assay is ADJ-PC-20 Plasma Cell (subcutaneous) in unknown mice

[1] = dose: 500.0 mg/kg/injection, schedule: Q01DX010 (ip), vehicle: carboxymethylcellulose (CMC)
[2] = dose: 1000.0 mg/kg/injection, schedule: Q01DX010 (ip), vehicle: carboxymethylcellulose (CMC)
[3] = dose: 7.5 mg/kg/injection, schedule: Q01DX010 (ip), vehicle: carboxymethylcellulose (CMC)
[4] = dose: 0.5 mg/kg/injection, schedule: Q01DX010 (ip), vehicle: carboxymethylcellulose (CMC)
[5] = dose: 1.0 mg/kg/injection, schedule: Q01DX010 (ip), vehicle: carboxymethylcellulose (CMC)
[6] = dose: 2.0 mg/kg/injection, schedule: Q01DX010 (ip), vehicle: carboxymethylcellulose (CMC)
[7] = dose: 4.0 mg/kg/injection, schedule: Q01DX010 (ip), vehicle: carboxymethylcellulose (CMC)
[8] = dose: 8.0 mg/kg/injection, schedule: Q01DX010 (ip), vehicle: carboxymethylcellulose (CMC)
[9] = dose: 3.1 mg/kg/injection, schedule: Q01DX010 (ip), vehicle: carboxymethylcellulose (CMC)
[10] = dose: 12.5 mg/kg/injection, schedule: Q01DX010 (ip), vehicle: carboxymethylcellulose (CMC)
[11] = dose: 62.5 mg/kg/injection, schedule: Q01DX010 (sc), vehicle: steriod suspending solution
[12] = dose: 25.0 mg/kg/injection, schedule: Q01DX010 (ip), vehicle: carboxymethylcellulose (CMC)
[13] = dose: 50.0 mg/kg/injection, schedule: Q01DX010 (ip), vehicle: carboxymethylcellulose (CMC)

## Cc1c2oc3c(C)ccc(C(=O)N[C@@H]4C(=O)N[C@H](C(C)C)C(=O)N5CCC[C@H]5C(=O)N(C)CC(=O)N(C)[C@@H](C(C)C)C(=O)O[C@H]4C)c3nc-2c(C(=O)N[C@@H]2C(=O)N[C@H](C(C)C)C(=O)N3CCC[C@H]3C(=O)N(C)CC(=O)N(C)[C@@H](C(C)C)C(=O)O[C@H]2C)c(N)c1=O (I: [aThr][dV]P[Sar][NMeV] / II: [aThr][dV]P[Sar][NMeV]; ester I:1-I:C, II:1-II:C; linker I:N-II:N via Actinocin(9to1))
dose: 4.7 micrograms/kg/injection, schedule: Q01DX010 (ip), vehicle: saline
  T/C: 161 % of control
dose: 6.2 micrograms/kg/injection, schedule: Q01DX010 (ip), vehicle: saline
  T/C: 193 % of control
dose: 9.4 micrograms/kg/injection, schedule: Q01DX010 (ip), vehicle: saline
  T/C: 87 % of control
dose: 12.5 micrograms/kg/injection, schedule: Q01DX010 (ip), vehicle: saline
  T/C: 93 % of control

## CSCS(=O)C[C@H](CO)NC(=O)/C=C/c1c(C)[nH]c(=O)[nH]c1=O (stereo partly specified)
dose: 0.25 mg/kg/injection, schedule: Q01DX010 (ip), vehicle: saline
  T/C: 71 % of control
dose: 0.5 mg/kg/injection, schedule: Q01DX010 (ip), vehicle: saline
  T/C: 82 % of control

## O=CN(O)CC(=O)O
dose: 62.5 mg/kg/injection, schedule: Q01DX011 (ip), vehicle: carboxymethylcellulose (CMC)
  T/C: 124 % of control
dose: 125.0 mg/kg/injection, schedule: Q01DX011 (ip), vehicle: carboxymethylcellulose (CMC)
  T/C: 76 % of control
dose: 250.0 mg/kg/injection, schedule: Q01DX011 (ip), vehicle: carboxymethylcellulose (CMC)
  T/C: 74 % of control
[1]
  T/C: 89 % of control
dose: 500.0 mg/kg/injection, schedule: Q01DX011 (ip), vehicle: carboxymethylcellulose (CMC)
  T/C: 56 % of control
[2]
  T/C: 63 % of control

## CCCCCCCCCCCCNCCCCCCCCCCCC
dose: 0.9 mg/kg/injection, schedule: Q01DX010 (ip), vehicle: carboxymethylcellulose (CMC)
  T/C: 109 % of control
dose: 1.8 mg/kg/injection, schedule: Q01DX010 (ip), vehicle: carboxymethylcellulose (CMC)
  T/C: 109 % of control
dose: 3.7 mg/kg/injection, schedule: Q01DX010 (ip), vehicle: carboxymethylcellulose (CMC)
  T/C: 98 % of control
[3]
  T/C: 88 % of control and 110 % of control

## O=C1C(NC(=O)C2CCCCC2)=C(N2CC2)C(=O)C(NC(=O)C2CCCCC2)=C1N1CC1
dose: 37.5 mg/kg/injection, schedule: Q01DX010 (ip), vehicle: carboxymethylcellulose (CMC)
  T/C: 102 % of control and 115 % of control

## CCN(CC)CCNc1ccc(C)c2sc3ccccc3c(=O)c12
dose: 0.78 mg/kg/injection, schedule: Q01DX010 (ip), vehicle: methylcellulose (MC)
  T/C: 150 % of control
dose: 1.56 mg/kg/injection, schedule: Q01DX010 (ip), vehicle: methylcellulose (MC)
  T/C: 194 % of control
dose: 6.25 mg/kg/injection, schedule: Q01DX010 (ip), vehicle: methylcellulose (MC)
  T/C: 27 % of control

## OCC1OC(n2cnc3c(=S)nc[nH]c32)C(O)C1O (stereo unspecified)
[4]
  T/C: 87 % of control
[5]
  T/C: 51 % of control
[6]
  T/C: 25 % of control
[7]
  T/C: 2 % of control
[8]
  T/C: 22 % of control

## S=P(N1CCOCC1)(N1CC1)N1CC1
[9]
  T/C: 88 % of control and 100 % of control
dose: 6.3 mg/kg/injection, schedule: Q01DX010 (ip), vehicle: carboxymethylcellulose (CMC)
  T/C: 116 % of control
[10]
  T/C: 1 % of control

## C[C@]12C=CC(=O)C=C1CC[C@@H]1[C@@H]2[C@@H](O)C[C@@]2(C)[C@H]1CC[C@]2(O)C(=O)CO
dose: 32.0 mg/kg/injection, schedule: Q01DX010 (sc), vehicle: steriod suspending solution
  T/C: 63 % of control

## C[C@]12CCC(=O)C[C@H]1CC[C@@H]1[C@@H]2CC[C@@]2(C)[C@H]1CC[C@]2(C)O
dose: 500.0 mg/kg/injection, schedule: Q01DX010 (sc), vehicle: steriod suspending solution
  T/C: 105 % of control and 119 % of control
dose: 1000.0 mg/kg/injection, schedule: Q01DX010 (sc), vehicle: steriod suspending solution
  T/C: 96 % of control

## C[C@]12CCC(=O)C=C1CC[C@@H]1[C@@H]2CC[C@@]2(C)[C@H]1CC[C@]2(C)O
dose: 31.25 mg/kg/injection, schedule: Q01DX010 (sc), vehicle: steriod suspending solution
  T/C: 113 % of control
[11]
  T/C: 114 % of control
dose: 125.0 mg/kg/injection, schedule: Q01DX010 (sc), vehicle: steriod suspending solution
  T/C: 99 % of control

## CC/C(=C(/CC)c1ccc(O)cc1)c1ccc(O)cc1
[11]
  T/C: 105 % of control

## O=c1[nH]c(=O)n(C2CC(O)C(CO)O2)cc1Br (stereo unspecified)
dose: 31.25 mg/kg/injection, schedule: Q01DX010 (ip), vehicle: carboxymethylcellulose (CMC)
  T/C: 80 % of control
dose: 62.5 mg/kg/injection, schedule: Q01DX010 (ip), vehicle: carboxymethylcellulose (CMC)
  T/C: 86 % of control
dose: 125.0 mg/kg/injection, schedule: Q01DX010 (ip), vehicle: carboxymethylcellulose (CMC)
  T/C: 74 % of control
[1]
  T/C: 88 % of control
[2]
  T/C: 74 % of control

## CCCSc1ncnc2nc[nH]c12
[7]
  T/C: 81 % of control
[8]
  T/C: 43 % of control
dose: 16.0 mg/kg/injection, schedule: Q01DX010 (ip), vehicle: carboxymethylcellulose (CMC)
  T/C: 28 % of control

## C[C@H]1C(=O)O[C@@H]2CCN3CC=C(COC(=O)[C@](C)(O)[C@@]1(C)O)[C@H]23
dose: 3.75 mg/kg/injection, schedule: Q01DX010 (ip), vehicle: carboxymethylcellulose (CMC)
  T/C: 86 % of control
[3]
  T/C: 56 % of control
dose: 15.0 mg/kg/injection, schedule: Q01DX010 (ip), vehicle: carboxymethylcellulose (CMC)
  T/C: 30 % of control
dose: 30.0 mg/kg/injection, schedule: Q01DX010 (ip), vehicle: carboxymethylcellulose (CMC)
  T/C: 36 % of control and 44 % of control
dose: 60.0 mg/kg/injection, schedule: Q01DX010 (ip), vehicle: carboxymethylcellulose (CMC)
  T/C: 6 % of control and 17 % of control

## CN(C)c1ccc(/C=C\c2ccnc3ccccc23)cc1
dose: 6.3 mg/kg/injection, schedule: Q01DX010 (ip), vehicle: water
  T/C: 70 % of control
dose: 12.5 mg/kg/injection, schedule: Q01DX010 (ip), vehicle: water
  T/C: 52 % of control
dose: 25.0 mg/kg/injection, schedule: Q01DX010 (ip), vehicle: water
  T/C: 48 % of control
dose: 25.0 mg/kg/injection, schedule: Q01DX011 (ip), vehicle: water
  T/C: 92 % of control

## CCCCNc1ncnc2c1cnn2C
[9]
  T/C: 94 % of control
[10]
  T/C: 122 % of control
[12]
  T/C: 96 % of control
[13]
  T/C: 109 % of control

## CC1CCOS(=O)O1 (stereo unspecified)
dose: 10.0 mg/kg/injection, schedule: Q01DX010 (ip), vehicle: carboxymethylcellulose (CMC)
  T/C: 65 % of control
dose: 20.0 mg/kg/injection, schedule: Q01DX010 (ip), vehicle: carboxymethylcellulose (CMC)
  T/C: 50 % of control
dose: 40.0 mg/kg/injection, schedule: Q01DX010 (ip), vehicle: carboxymethylcellulose (CMC)
  T/C: 32 % of control

## CN(N=O)C(=O)NC(C=O)C(O)C(O)C(O)CO (stereo unspecified)
dose: 50.0 mg/kg/injection, schedule: Q01DX010 (ip), vehicle: saline
  T/C: 68 % of control

## CC(=O)Nc1ccc2nc3ccc(NC(C)=O)cc3[n+](-c3ccccc3)c2c1
[10]
  T/C: 65 % of control
[12]
  T/C: 76 % of control
[13]
  T/C: 77 % of control

## CCn1cnc2c(=S)nc[nH]c21
[5]
  T/C: 71 % of control
[6]
  T/C: 48 % of control
[7]
  T/C: 11 % of control
[8]
  T/C: 2 % of control

## Nc1nc(=S)c2[nH]cnc2[nH]1
dose: 0.12 mg/kg/injection, schedule: Q01DX010 (ip), vehicle: carboxymethylcellulose (CMC)
  T/C: 112 % of control
dose: 0.25 mg/kg/injection, schedule: Q01DX010 (ip), vehicle: carboxymethylcellulose (CMC)
  T/C: 39 % of control and 62 % of control
[4]
  T/C: 9 % of control
dose: 62.0 micrograms/kg/injection, schedule: Q01DX010 (ip), vehicle: carboxymethylcellulose (CMC)
  T/C: 52 % of control
dose: 125.0 micrograms/kg/injection, schedule: Q01DX010 (ip), vehicle: carboxymethylcellulose (CMC)
  T/C: 23 % of control
dose: 250.0 micrograms/kg/injection, schedule: Q01DX010 (ip), vehicle: carboxymethylcellulose (CMC)
  T/C: 14 % of control

## N[C@@H](Cc1ccc(N(CCCl)CCCl)cc1)C(=O)O
dose: 0.3 mg/kg/injection, schedule: Q01DX010 (ip), vehicle: saline
  T/C: 48 % of control
dose: 0.63 mg/kg/injection, schedule: Q01DX010 (ip), vehicle: saline
  T/C: 75 % of control
dose: 1.25 mg/kg/injection, schedule: Q01DX010 (ip), vehicle: saline
  T/C: 52 % of control
